{
  "source": "patent US20060252048A1",
  "about": "“Method for testing ghrelin release” (priority 2003, published 2006)",
  "system": "RF-48 cells",
  "experiment": "ghrelin release from RF-48 cells measured by enzyme immunoassay",
  "format": "cell-based, human",
  "settings": "1 hour incubation with test compound, supernatant measured with EIA kit, compared with control and control+vehicle (FIG. 1)",
  "experimental": "These test compounds were made as 100× stock solutions by dissolving them in pure ethanol, as a vehicle. The test compounds were then diluted 1/100 in the Leibovitz L-15 medium containing 0.5% foetal bovine serum (FBS).\nSince the effect caused by these test compounds on ghrelin release by a RF-48 cell line was tested, RF-48 cells were grown during incubation at 37° C. in Leibovitz's L15 medium with 2 mM L-glutamine and containing 10% (vol/vol) FBS in the absence of CO2.\nAfter cell confluence was obtained, the cells were plated in 24-well cultures plates (1×10^5 cells/well). Several wells were subsequently exposed to one of the test compounds as prepared above. For each type and concentration of test compound tested, a series of three tests was carried out.\nAfter 1 hour of incubation of the thus-filled wells containing both the cells and the test compound at the same conditions as those applied during growing of the RF-48 cells, a sample was taken from each well to measure ghrelin release.\nEach sample was centrifuged at 3000 rpm to remove the cells from the sample and the supernatant (containing the ghrelin formed as well as the medium and the test compound) was transferred to a separate tube. The ghrelin release was measured using a commercial enzyme immunoassay kit (from Phoenix Pharmaceuticals, Belmont, Calif., USA). […]",
  "note": "Where no end group is shown, it is not given here. The star is where a group is joined. SO3H = O=S(=O)(O)*",
  "data": [
    {"substance": "Tyr(SO3H]27)Cholecystokinin fragment 26-33 Amide (DY(SO3H)MGWMDF-NH2; UniProt P06307 96-103, looked up) [CCK]", "values": [
      {"measurement": "ghrelin release", "value": "stimulate the release of ghrelin"}
    ]}
  ]
}
